Source: the supplement of paper PMC10307832

Experiments:
Assay in all cases: relative viability (nuclei count vs DMSO), 5 days (fraction); higher = more cells survive
[1] = compound: COc1nc(N)nc2c1ncn2[C@@H]1O[C@H](CO)[C@@H](O)[C@@H]1O [Nelarabine] + Nc1nc2[nH]cc(CCc3ccc(C(=O)N[C@@H](CCC(=O)O)C(=O)O)cc3)c2c(=O)[nH]1 [Pemetrexed] (partner 0.2 µM)
Outline: (§1)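 A single step with final 0.05% Triton X-100, 1% formaldehyde and 1 ug/ml Hoechst fixed the cells and stained nuclei 5 days after treatment. Lung cancer cell lines in 1536-well plates had been treated by pin tool the day after seeding with one drug alone or a fixed anchor-drug dose plus five library-drug doses (not always all listed) in √10 steps, and nuclei were counted on 4× images. Relative viability is the ratio of nuclei in treated wells to nuclei in vehicle wells, taken as the median of duplicate plates.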

[2] = compound: C=CCn1c(=O)c2cnc(Nc3ccc(N4CCN(C)CC4)cc3)nc2n1-c1cccc(C(C)(C)O)n1 [Adavosertib] + O=C(c1cc(Cc2n[nH]c(=O)c3ccccc23)ccc1F)N1CCN(C(=O)C2CC2)CC1 [Olaparib] (partner 8 µM)
Outline: as §1

[3] = compound: C=CCn1c(=O)c2cnc(Nc3ccc(N4CCN(C)CC4)cc3)nc2n1-c1cccc(C(C)(C)O)n1 [Adavosertib] + CS(=O)(=O)CCNCc1ccc(-c2ccc3ncnc(Nc4ccc(OCc5cccc(F)c5)c(Cl)c4)c3c2)o1 [Lapatinib] (partner 2 µM)
Outline: as §1

[4] = compound: COc1nc(N)nc2c1ncn2[C@@H]1O[C@H](CO)[C@@H](O)[C@@H]1O [Nelarabine] + CC(=O)Nc1cccc(-n2c(=O)n(C3CC3)c(=O)c3c(Nc4ccc(I)cc4F)n(C)c(=O)c(C)c32)c1 [Trametinib] (partner 0.02 µM)
Outline: as §1

EMC-BAC-2
relative viability ([1]; first compound 0.01 µM): 0.44 | relative viability ([1]; first compound 0.03162 µM): 0.456 | relative viability ([1]; first compound 0.1 µM): 0.502 | relative viability ([1]; first compound 0.3162 µM): 0.52 | relative viability ([1]; first compound 1 µM): 0.508 | relative viability ([2]; first compound 0.03162 µM): 0.493 | relative viability ([2]; first compound 0.1 µM): 0.51 | relative viability ([2]; first compound 0.3162 µM): 0.453 | relative viability ([3]; first compound 0.01 µM): 0.882 | relative viability ([3]; first compound 0.03162 µM): 0.869 | relative viability ([3]; first compound 0.1 µM): 0.927 | relative viability ([3]; first compound 0.3162 µM): 0.978 | relative viability ([4]; first compound 0.01 µM): 0.895 | relative viability ([4]; first compound 0.03162 µM): 1.02 | relative viability ([4]; first compound 0.1 µM): 0.819 | relative viability ([4]; first compound 0.3162 µM): 0.821 | relative viability ([4]; first compound 1 µM): 0.916
